Data taken from PMC9004777, “Double drugging of prolyl-tRNA synthetase provides a new paradigm for anti-infective drug development” (PLoS Pathogens, 2022).
Where two headings read alike, the source gives them in different places.

Tests used:
[1] = target: T1, Toxoplasma gondii prolyl-tRNA synthetase (TgPRS) (Toxoplasma gondii, UniProt A0A7J6JUK2); experiment: co-crystal structure with L95 at […] Å; assay type: binding
T1 construct: gene TGRH88_057780
T1 sequence (A0A7J6JUK2 215-711): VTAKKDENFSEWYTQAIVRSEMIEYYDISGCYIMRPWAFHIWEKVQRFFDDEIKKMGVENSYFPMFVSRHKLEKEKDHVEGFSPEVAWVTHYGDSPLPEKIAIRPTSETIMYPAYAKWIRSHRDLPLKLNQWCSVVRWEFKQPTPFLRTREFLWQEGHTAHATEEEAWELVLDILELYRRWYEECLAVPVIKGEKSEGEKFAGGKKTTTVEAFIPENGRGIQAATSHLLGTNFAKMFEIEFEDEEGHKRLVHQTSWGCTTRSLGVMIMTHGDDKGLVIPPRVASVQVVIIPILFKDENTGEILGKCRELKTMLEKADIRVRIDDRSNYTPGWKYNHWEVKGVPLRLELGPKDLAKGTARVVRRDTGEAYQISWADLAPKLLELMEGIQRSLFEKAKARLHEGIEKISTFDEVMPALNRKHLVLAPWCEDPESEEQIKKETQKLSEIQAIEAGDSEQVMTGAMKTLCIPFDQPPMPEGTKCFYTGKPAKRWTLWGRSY

[2] = target: T2, HsPRS (Homo sapiens, UniProt P07814); experiment: malachite green aminoacylation assay, recombinant enzyme; TSA; assay type: biochemical
T2 construct: gene EPRS1

[3] = target: T1, Toxoplasma gondii prolyl-tRNA synthetase (TgPRS); experiment: co-crystal structure with L95 at […] Å; TSA; malachite green aminoacylation assay (IC50); assay type: biochemical
[4] = target: T1, Toxoplasma gondii prolyl-tRNA synthetase (TgPRS); experiment: co-crystal structures at […] Å (with L-pro, 7EVV; with HFG, 7EVU); TSA; malachite green aminoacylation assay (IC50); assay type: biochemical

T2 sequence (P07814 whole entry): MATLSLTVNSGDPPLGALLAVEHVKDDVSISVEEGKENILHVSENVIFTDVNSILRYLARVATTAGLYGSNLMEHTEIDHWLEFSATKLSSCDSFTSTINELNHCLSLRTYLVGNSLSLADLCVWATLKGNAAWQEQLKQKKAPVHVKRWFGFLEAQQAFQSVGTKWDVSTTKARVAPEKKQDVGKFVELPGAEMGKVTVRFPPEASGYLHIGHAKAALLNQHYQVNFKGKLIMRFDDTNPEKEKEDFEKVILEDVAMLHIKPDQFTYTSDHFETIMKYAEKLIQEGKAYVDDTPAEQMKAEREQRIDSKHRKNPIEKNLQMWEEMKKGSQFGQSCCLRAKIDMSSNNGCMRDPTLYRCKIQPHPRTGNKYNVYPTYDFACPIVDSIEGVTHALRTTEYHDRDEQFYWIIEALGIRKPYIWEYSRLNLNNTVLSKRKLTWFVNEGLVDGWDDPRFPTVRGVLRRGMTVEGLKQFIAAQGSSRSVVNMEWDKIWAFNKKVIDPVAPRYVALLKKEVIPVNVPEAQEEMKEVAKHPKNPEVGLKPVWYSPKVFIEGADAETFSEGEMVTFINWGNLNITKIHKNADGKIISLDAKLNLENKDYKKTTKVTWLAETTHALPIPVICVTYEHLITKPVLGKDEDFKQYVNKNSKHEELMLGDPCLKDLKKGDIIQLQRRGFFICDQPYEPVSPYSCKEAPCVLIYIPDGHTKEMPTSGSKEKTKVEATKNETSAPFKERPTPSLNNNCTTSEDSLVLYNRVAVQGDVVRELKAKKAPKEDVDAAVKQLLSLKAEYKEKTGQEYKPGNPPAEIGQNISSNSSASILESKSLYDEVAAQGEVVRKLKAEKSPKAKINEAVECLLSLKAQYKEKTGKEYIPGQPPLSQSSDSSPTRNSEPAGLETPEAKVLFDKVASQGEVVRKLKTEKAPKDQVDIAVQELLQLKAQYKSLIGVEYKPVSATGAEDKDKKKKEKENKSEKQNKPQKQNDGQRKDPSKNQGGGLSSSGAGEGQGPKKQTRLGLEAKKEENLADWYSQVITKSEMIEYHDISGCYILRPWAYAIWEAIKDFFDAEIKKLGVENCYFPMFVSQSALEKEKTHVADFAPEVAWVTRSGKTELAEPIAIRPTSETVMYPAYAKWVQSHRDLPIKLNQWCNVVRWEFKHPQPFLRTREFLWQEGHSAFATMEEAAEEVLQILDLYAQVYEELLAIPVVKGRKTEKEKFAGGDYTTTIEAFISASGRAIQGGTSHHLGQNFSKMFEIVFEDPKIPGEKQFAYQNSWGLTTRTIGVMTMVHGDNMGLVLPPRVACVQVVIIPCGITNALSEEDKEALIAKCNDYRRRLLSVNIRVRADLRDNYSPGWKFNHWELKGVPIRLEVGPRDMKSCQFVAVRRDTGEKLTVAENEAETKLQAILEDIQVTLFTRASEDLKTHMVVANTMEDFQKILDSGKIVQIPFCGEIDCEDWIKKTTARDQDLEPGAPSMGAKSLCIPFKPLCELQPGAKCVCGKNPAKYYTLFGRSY

With `O=C(O)[C@@H]1CCCN1` [L-pro, L-proline] the “co-crystal structure with L95 at 1.7 Å” value [1] was “forms a salt bridge between the carboxylic group of L-pro and the guanidium group of Arg470”.
`O=C(C[C@H]1NCCC[C@@H]1O)Cn1cnc2cc(Br)c(Cl)cc2c1=O` (racemic) [HFG, halofuginone] showed an IC50 ([2]; read-out: IC50) of 10.7 nM and an IC50 [3] of 5.41 nM.
With `Cc1cc(N2CC[C@@](C#N)(C3CC3)C2=O)cc(NC(=O)Cc2ccccc2)n1` [L95] the IC50 [2] was 47.7 nM and the IC50 [4] was 47.7 nM.
